“Also recorded” adds a separate entry of the source.
How the values were obtained:
[1] = tested on: Rat hippocampal slices in culture; test: Beta-amyloid peptide-induced cytotoxicity in hippocampal slice cultures; format: cell-based; conditions: C7 25 μM
Experimental: Rat hippocampal slices in culture were incubated with the beta-amyloid peptide (1-42) at the indicated concentrations. Cell viability was assessed by two criteria: release of lactate dehydrogenase (L*H) into the culture medium and staining with propidium […] iodide (PI) which binds to exposed DNA.
Rat hippocampal slice cultures were incubated with the beta-amyloid peptide (1-42) at the indicated concentrations. Cell viability was assessed by two criteria: release of lactate dehydrogenase (L*H) into the culture medium and staining with propidium iod*de (PI) which binds to exposed DNA.

[2] = tested on: pigs; test: Acute lung injury in endotoxemic pigs; format: in vivo, pig
Experimental: All pigs were pre-treated at T=−18 h with Escherichia coli 0111:B4 LPS (20 μg/kg). Pigs in the RL group (n=4) received no further treatment. […] Lung wet-to-dry weight ratio was determined post-mortem. Lung lipid peroxidation was estimated fluorometrically by measuring thiobarbituric acid reactive products in the lipid fraction of lung parenchymal tissue harvested at T=300 min.

[3] = tested on: SJL female mice; test: Experimental autoimmune encephalomyelitis (EAE); format: in vivo, mouse
Text: EAE is an animal model of multiple sclerosis.
Mice in both groups were immunized with an encephalitogenic PLP peptide in complete Freund's adjuvant subcutaneously, followed by Petrussis Toxin (IV). Petrussis toxin was repeated on day 3 post immunization.

[4] = tested on: dopaminergic neurons in mouse striatum; test: 6-OHDA model of neuronal injury in mice (3H-mazindol binding in striatal homogenates); format: in vivo
Experimental: 6-OHDA in mice. Adult male CFW mice were anesthetized with ketamine and rumpun, and immobilized in a stereotaxic device. 6-OHDA, as the hydrobromide salt, was dissolved in normal saline with 1% ascorbate, and 50 μg was administered in lateral ventricle by means of a 10 μl Hamilton syringe. […] Animals were sacrificed 7 days later, and neuronal pathology was assessed by measuring ^3H-mazindol binding in striatal homogenates.

[5] = tested on: Hippocampal slices; test: Lactic acid-induced lipid peroxidation in hippocampal slices; format: cell-based, rat; conditions: C7 50 μM, 30 mM lactate pH 5.0, 100 minutes
Experimental: Hippocampal slices (400 μm thick) were obtained from Sprague-Dawley rats (150-200 g) and collected in preoxygenated (95% O2/5% CO2) Krebs-Ringer phosphate medium (pH 7.4) containing NaCl 120 mM, KCl 5 mM, CaCl2 1.3 mM, MgCl2 1.2 mM, NaPhosphate 16 mM (pH 7.4) and glucose 10 mM. After 15 minutes preincubation in a water bath at 35° C. under agitation, the buffer was replaced with the same buffer (control) or a modified buffer (lactate buffer) containing NaCl 90 mM, KCl 5 mM, CaCl2 1.3 mM, MgCl2 1.2 mM, NaPhosphate 16 mM and lactic acid 30 mM (pH 5.0). […] After 100 minutes, slices were collected and homogenized in 0.9 ml of TCA 5%, whereas 0.35 ml of TCA 5% was added to 0.5 ml of the incubation medium. Lipid peroxidation was measured by adding 0.25 ml of a thiobarbituric acid reagent (TBAR) to 0.85 ml of the TCA extracts and incubating the mixture for 60 minutes at 85-93° C. Lipids were then extracted with 2×0.5 ml 1-butanol by vortexing for 10 seconds, then centrifuging at 2,000 rpm for 10 minutes. The absorbance of peroxidized lipids in the alcohol phase was measured in a spectrophotometer at 532 nm. Data were expressed as nmoles of malondialdehyde (MDA) using authentic MDA to establish a standard curve. Proteins were measured from an aliquot of the TCA extracts using the method of Bradford and the final results were calculated as nmoles MDA formed/mg protein.

[6] = tested on: mice; test: Mouse model for delayed hypersensitivity (oxazolone, ear edema); format: in vivo; conditions: topical, 2.5 micrograms C7 per ear
Experimental: Mice (“Presensitized” and “Presensitized+C7” groups) were presensitized with oxazolone on the abdomen. One group (“Not presensitized”) received only vehicle on the abdomen at this time. After 7 days, each mouse was challenged with the oxazolone hapten on one ear and given vehicle only on the opposite ear. […] The other two groups received an equivalent volume of 90% acetone. Twenty-four hr after challenge, mice were sacrificed and ear edema was assessed by determining the wet weight/dry weight ratio. (Wet weight was determined by weighing the freshly dissected ear and dry weight was determined after lyophilization to a constant weight.)
Mice (“Presensitized” and “Presensitized+C7” groups) were presensitized with oxazolone on the abdomen. One group (“Not presensitized”) received only vehicle on the abdomen at this time. After 7 days, each mouse were challenged with the oxazolone hapten on one ear and given vehicle only on the opposite ear. […] The other two groups received an equivalent volume of 90% acetone. Twenty-four hr after challenge, mice were sacrificed and ear edema was assessed by determining the wet weight/dry weight ratio. (Wet weight was determined by weighing the freshly dissected ear and dry weight was determined after lyophilization to a constant weight.)

[7] = SOD activity, inhibition of cytochrome C reduction by xanthine plus xanthine oxidase (Example 1); format: biochemical
Experimental: The SOD activity of the compounds was determined by evaluating the inhibition of the reduction of cytochrome C produced by the oxygen free radical generating system, xanthine plus xanthine oxidase. Cytochrome C reduction is monitored spectrophotometrically at 550 nm according to the method described in Darr et al. (1987) Arch. Biochem. Biophys. 258: 351, incorporated herein by reference. The concentration of xanthine oxidase is adjusted such that it produces a rate of reduction of cytochrome C at 550 nm of 0.025 absorbance unit per minute. Under these conditions, the amount of SOD activity required to inhibit the rate of cytochrome C reduction by 50 percent (i.e., to a rate of 0.0125 absorbance unit per minute) is defined as one unit of activity. Salen-metal complexes are identified as antioxidants if they have at least 0.1 unit of activity at a concentration of 1 mM under these standard assay conditions.

[8] = T = 300 min, C7 10 mg/kg bolus at T=60 min then 10 mg/kg-h after LPS
[9] = C7 4×66 mg/kg i.p., 6-OHDA 50 μg i.c.v.

SMILES: [Cl][Mn]1[O]c2ccccc2C=NCCN=Cc2ccccc2[O]1 [Compound C7]
- protection from beta-amyloid peptide-induced cytotoxicity [1]: protect neurons; also recorded: protects neuronal tissue
- % Cdyn, dynamic pulmonary compliance [2, 8]: 78 ± 4%
- MDA, lung malondialdehyde level [2, 8]: 180 ± 27 pmols/mg dry weight
- PaO2, arterial oxygenation [2, 8]: 148 ± 22 mm Hg
- Ppa, mean pulmonary arterial pressure [2, 8]: 25 ± 3 mm Hg
- W/D, lung wet-to-dry weight ratio [2, 8]: 6.4 ± 0.9
- protection against effects of endotoxin ([2]; administered 60 min after onset of endotoxemia): protects against many of the deleterious effects of endotoxin
- mice developing symptomatic EAE ([3]; fifth week, three weeks after treatment with C7 was stopped): six
- mice developing symptomatic EAE ([3]; third week following immunization, C7 1 mg/mouse IP daily, day -2 to 14): one of 10
- mazindol binding, contralateral striatum [4, 9]: complete protection
- mazindol binding, ipsilateral striatum [4, 9]: significant reduction
- crossing of the blood brain barrier ([4]; concluded from effects of peripheral injections in in vivo models): crosses the blood brain barrier
- protection from 6-OHDA-induced degeneration ([4]; mouse, in vivo): protects dopaminergic neurons
- lactate-induced increase in lipid peroxidation [5]: totally abolished; also recorded: protects
- protection, ear edema [6]: protective
- SOD Activity ([7]; Example 1, cytochrome C reduction): 575 units/mM
- SOD Activity ([7]; previously found): about 769 units/mM

Reference: US7582786B2, “Synthetic catalytic free radical scavengers useful as antioxidants for prevention and therapy of disease” (Eukarion Inc., priority 1996, dated 2009)
